Assay results published in US20240165097A1, “PHARMACEUTICAL COMPOSITION FOR THE TREATMENT OF ALZHEIMER'S DISEASE OR DEMENTIA” (Heptares Therapeutics Limited, priority 2021, published 2024).
Entries after “also recorded” stand apart in the source; their conditions may differ. Where two headings read alike, the source gives them in different places.

Test: Example D: HTL0018318 plasma pharmacokinetics
Format: in vivo, human
Experimental: Selected plasma pharmacokinetics (PK) parameters for HTL0018318 were estimated during the period over which PD assessments were made. Details of assessment times for all endpoints are described below.
Pharmacokinetics (PK) were evaluated via blood samples, for determination of HTL0018318 concentrations in plasma. Blood samples were collected during clinic visits before morning dose administration and 1, 2, and 4 hours after dose administration, on Day 1, Day 6, Day 11, Day 16, Day 28, and Day 35 (follow-up visit). Bioanalysis used a fully validated method and all samples were analysed within the established period of storage stability. Validated Phoenix® WinNonlin® Version 6.4 was used to derive PK parameters.
All safety analyses used the safety set (SAF; randomised dose). The SAF (randomised dose) included all randomised patients who received at least one dose of the study drug; treatment group assignment was based on the initial randomised dose. All efficacy analyses were considered exploratory and used the full analysis set (FAS). The FAS included all randomised patients with at least one post-baseline efficacy measurement; treatment group assignment was based on the initial randomised dose. All summaries and analyses of PK data used the pharmacokinetic set (PKS). The PKS included all randomised patients with valid PK assessments; treatment group assignment was based on actual dose received.

SMILES: CCOC(=O)N1C2CCC1CC(N1CCC3(CC1)CNC(=O)C3)C2 (stereo not drawn) [HTL0018318, ethyl 3-(3-oxo-2,8-diazaspiro[4.5]dec-8-yl)-8-azabicyclo[3.2.1]octane-8-carboxylate]
- Ctrough, arithmetic mean ± SD (5 mg, visit day 6): 14.2 ± 12.1 ng/mL
- Ctrough, arithmetic mean ± SD (5 mg, visit day 11): 13.7 ± 10.3 ng/mL
- Ctrough, arithmetic mean ± SD (10 mg, visit day 6): 7.55 ± 4.72 ng/mL
- Ctrough, mean (10 mg, visit day 11, n = 2): 5.47 ng/mL
- Ctrough, arithmetic mean ± SD (15 mg, visit day 6): 19.0 ± 25.7 ng/mL
- Ctrough, arithmetic mean ± SD (15 mg, visit day 11): 27.9 ± 40.7 ng/mL
- Cmax, arithmetic mean ± SD (25 mg, visit day 28): 223 ± 134 ng/mL
- dose-exposure proportionality (Cmax, AUC0-4 h) (5-25 mg): Dose-exposure proportionality was confirmed; also recorded: increased proportionally across 5-25 mg doses
- steady-state achieved with daily dosing (any given dose level): 5 days
- AUC(0-t) (human, plasma, 5 mg, visit day 1, read-out: AUC0-4 h, arithmetic mean ± SD): 113 ± 57.6 ng·h/mL
- Cmax (human, plasma, 5 mg, visit day 1, read-out: Cmax, arithmetic mean ± SD): 40.3 ± 24.4 ng/mL
- AUC(0-t) (human, plasma, 5 mg, visit day 6, read-out: AUC0-4 h, arithmetic mean ± SD): 146 ± 53.1 ng·h/mL
- Cmax (human, plasma, 5 mg, visit day 6, read-out: Cmax, arithmetic mean ± SD): 50.5 ± 15.6 ng/mL
- AUC(0-t) (human, plasma, 5 mg, visit day 11, read-out: AUC0-4 h, arithmetic mean ± SD): 149 ± 70.6 ng·h/mL
- Cmax (human, plasma, 5 mg, visit day 11, read-out: Cmax, arithmetic mean ± SD): 48.3 ± 19.6 ng/mL
- AUC(0-t) (human, plasma, 5 mg, visit day 16, read-out: AUC0-4 h, arithmetic mean ± SD): 132 ± 56.2 ng·h/mL
- Cmax (human, plasma, 5 mg, visit day 16, read-out: Cmax, arithmetic mean ± SD): 46.4 ± 18.9 ng/mL
- AUC(0-t) (human, plasma, 5 mg, visit day 28, read-out: AUC0-4 h, arithmetic mean ± SD): 144 ng·h/mL
- Cmax (human, plasma, 5 mg, visit day 28, read-out: Cmax, arithmetic mean ± SD): 51.8 ng/mL
- AUC(0-t) (human, plasma, 10 mg, visit day 6, read-out: AUC0-4 h, arithmetic mean ± SD): 244 ± 88 ng·h/mL
- Cmax (human, plasma, 10 mg, visit day 6, read-out: Cmax, arithmetic mean ± SD): 82.4 ± 31.6 ng/mL
- AUC(0-t) (human, plasma, 10 mg, visit day 11, n = 2, read-out: AUC0-4 h, mean [minimum, maximum]): 231 ng·h/mL
- Cmax (human, plasma, 10 mg, visit day 11, read-out: Cmax, arithmetic mean ± SD): 69.7 ± 33.6 ng/mL
- AUC(0-t) (human, plasma, 10 mg, visit day 16, n = 1, read-out: AUC0-4 h): 302 ng·h/mL
- Cmax (human, plasma, 10 mg, visit day 16, n = 1, read-out: Cmax): 87.5 ng/mL
- AUC(0-t) (human, plasma, 10 mg, visit day 28, n = 1, read-out: AUC0-4 h): 222 ng·h/mL
- Cmax (human, plasma, 10 mg, visit day 28, n = 1, read-out: Cmax): 89 ng/mL
- AUC(0-t) (human, plasma, 15 mg, visit day 6, read-out: AUC0-4 h, arithmetic mean ± SD): 315 ± 163 ng·h/mL
- Cmax (human, plasma, 15 mg, visit day 6, read-out: Cmax, arithmetic mean ± SD): 106 ± 54 ng/mL
- AUC(0-t) (human, plasma, 15 mg, visit day 11, read-out: AUC0-4 h, arithmetic mean ± SD): 379 ± 77.5 ng·h/mL
- Cmax (human, plasma, 15 mg, visit day 11, read-out: Cmax, arithmetic mean ± SD): 126 ± 29.3 ng/mL
- AUC(0-t) (human, plasma, 15 mg, visit day 16, read-out: AUC0-4 h, arithmetic mean ± SD): 422 ± 94.5 ng·h/mL
- Cmax (human, plasma, 15 mg, visit day 16, read-out: Cmax, arithmetic mean ± SD): 136 ± 31.4 ng/mL
- AUC(0-t) (human, plasma, 15 mg, visit day 28, read-out: AUC0-4 h, arithmetic mean ± SD): 368 ng·h/mL
- Cmax (human, plasma, 15 mg, visit day 28, read-out: Cmax, arithmetic mean ± SD): 123 ng/mL
- AUC(0-t) (human, plasma, 25 mg, visit day 11, read-out: AUC0-4 h, arithmetic mean ± SD): 650 ± 302 ng·h/mL
- Cmax (human, plasma, 25 mg, visit day 11, read-out: Cmax, arithmetic mean ± SD): 222 ± 102 ng/mL
- AUC(0-t) (human, plasma, 25 mg, visit day 16, read-out: AUC0-4 h, arithmetic mean ± SD): 728 ± 359 ng·h/mL
- Cmax (human, plasma, 25 mg, visit day 16, read-out: Cmax, arithmetic mean ± SD): 243 ± 108 ng/mL
- AUC(0-t) (human, plasma, 25 mg, visit day 28, read-out: AUC0-4 h, arithmetic mean ± SD): 668 ng·h/mL
- Cmax (human, plasma, 25 mg, visit day 28, read-out: Cmax, arithmetic mean ± SD): 224 ng/mL
- concentration at 16 day (human, plasma, 5 mg, visit day 16, read-out: Ctrough, arithmetic mean ± SD): 14.1 ± 10.8 ng/mL
- concentration at 28 day (human, plasma, 5 mg, visit day 28, read-out: Ctrough, arithmetic mean ± SD): 14.2 ± 12.3 ng/mL
- concentration at 16 day (human, plasma, 10 mg, visit day 16, n = 1, read-out: Ctrough): 8.25 ng/mL
- concentration at 28 day (human, plasma, 10 mg, visit day 28, n = 1, read-out: Ctrough): 6.41 ng/mL
- concentration at 16 day (human, plasma, 15 mg, visit day 16, read-out: Ctrough, arithmetic mean ± SD): 29.4 ± 38.5 ng/mL
- concentration at 28 day (human, plasma, 15 mg, visit day 28, read-out: Ctrough, arithmetic mean ± SD): 23.2 ± 16 ng/mL
- concentration at 11 day (human, plasma, 25 mg, visit day 11, read-out: Ctrough, arithmetic mean ± SD): 22.2 ± 21.8 ng/mL
- concentration at 16 day (human, plasma, 25 mg, visit day 16, read-out: Ctrough, arithmetic mean ± SD): 66.7 ± 80.4 ng/mL
- concentration at 28 day (human, plasma, 25 mg, visit day 28, read-out: Ctrough, arithmetic mean ± SD): 40.3 ± 30.6 ng/mL
- Tmax (human, plasma, all doses, read-out: Tmax (median)): 1 to 2 h
